Common to all, as to assay type: cell-based
The test system of test [1] is LPA-induced MCP-1 in NRK-49F cells. Kind of test: LPA-induced MCP-1 AlphaLISA assay. As to conditions: Rattus norvegicus, final LPA 10 μM, 7 hours; for Emax: read-out: Maximum Inhibition. A digest of the protocol:
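NRK-49F rat fibroblasts, serum-starved overnight, pretreated with compound for 30 min at 37 °C (1% DMSO final), then stimulated with 10 μM LPA final. MCP-1 in the supernatant was measured by mouse/rat CCL2 AlphaLISA. IC50 values came from four-parameter logistic fits of the ratio data.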
(Bead proximity is the source of the signal in Alpha formats.)

Test [2] concerns the target T1, LPAR1 (Homo sapiens, UniProt Q92633).
T1 construct: host or cells: U2OS
In words: LPAR1 Arrestin Assay (arrestin reporter assay). As to conditions: U2OS cells stably expressing the LPAR1 receptor, 200 nM 18:1 LPA (EC80); for Emax: read-out: Maximum Inhibition. The protocol:
One day prior to the experiment, frozen U2OS cells stably expressing the LPAR1 receptor (Life Technologies, Grand Island, N.Y., #K1519A) were thawed, centrifuged at 1,000 rpm for 5 minutes to remove DMSO, and resuspended in FreeStyle™ media (Gibco, Grand Island, N.Y.). Forty microliters of cells were plated into PDL-coated 384-well plates (Greiner Bio-One, Monroe, N.C.) at 10,000 cells/well, and then the plates were incubated overnight in humidified 5% CO2 at 37° C. Test compounds were dissolved in DMSO, and 12-point, 1:3 dilution CRCs were prepared in duplicate; daughter plates were prepared by aliquoting 0.8 μL/well of test compound dilutions into 384-well plates. On the day of the assay, the daughter plates were diluted to 6× stocks using HEPES-buffered HBSS, then 10 μL of 6× test compounds were added to the cells, and the plates were incubated at 37° C. for one hour. After this 1 hour incubation, 10 μL of a 6× stock of the LPAR1 agonist, 18:1 LPA (Avanti Polar Lipids, Alabaster, Ala.), was prepared in HEPES-buffered HBSS+0.1% fatty acid-free BSA (Sigma, St. Louis, Mo.). The 6×LPA was added to all wells for a final concentration of 200 nM, which corresponds to the 18:1 LPA EC80 in this arrestin assay. The final DMSO concentration in the assay plate was 0.1%, and the final BSA concentration was 0.02%. After addition of LPA to all wells, the assay plates were incubated in humidified 5% CO2 at 37° C. for five hours. During the incubation period, 6× dye from the LiveBLAzer™-FRET B/G with CCF4-AM kit (Life Technologies, Grand Island, N.Y.) was prepared according to manufacturers' instructions. At the end of the 5 hour compound incubation, 10 μL of 6× dye was added to each well, and the assay plate was incubated for two hours in the dark at room temperature. Throughout the assay procedure, all volume additions were performed with a Biomek® NX liquid handler (Beckman Coulter, Indianapolis, Ind.). After the 2 hour dye-load, fluorescence was measured on an EnVision® Multilabel Plate Reader (Perkin Elmer, Waltham, Mass.) with an excitation filter at 409/20 nm and emission filters at 460/40 nm and 530/30 nm. Data processing was performed as recommended by the LiveBLAzer™-FRET B/G with CCF4-AM kit manual; all test compound CRCs were performed in duplicate with n≥3.
In general terms: A reporter such as luciferase makes a cellular process visible.

The target of test [3] is T1, LPAR1. Kind of test: LPAR1 FLIPR Assay. The settings on record: U2OS cells stably expressing LPAR1, LPA (EC80), Calcium 6 FLIPR dye; for Emax: read-out: Maximum Inhibition. A digest of the protocol:
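U2OS cells stably expressing LPAR1 were loaded with Calcium 6 dye for 2 h at 37° C, preincubated 3 min with compound (11-point 3-fold series), then stimulated with LPA at EC80. Fluorescence at 515-575 nm was recorded by FLIPR; IC50 came from four-parameter logistic fits of ratio data.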

Structures are written as SMILES.

T1 sequence (Q92633 whole entry): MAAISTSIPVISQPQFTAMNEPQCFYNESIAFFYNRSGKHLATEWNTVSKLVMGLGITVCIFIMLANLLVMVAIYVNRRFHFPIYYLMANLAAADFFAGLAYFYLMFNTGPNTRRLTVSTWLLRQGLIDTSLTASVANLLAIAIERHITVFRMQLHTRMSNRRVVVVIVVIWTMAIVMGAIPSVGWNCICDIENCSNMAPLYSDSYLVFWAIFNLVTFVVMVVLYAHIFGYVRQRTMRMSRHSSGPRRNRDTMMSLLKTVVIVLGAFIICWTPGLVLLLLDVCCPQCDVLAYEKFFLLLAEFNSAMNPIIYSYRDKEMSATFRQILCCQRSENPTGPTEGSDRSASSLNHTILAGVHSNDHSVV

`COc1cc(C(=O)N(CCCc2ccc(C)o2)CCCC(C)(O)C(=O)O)cc(OC)c1C` (stereo not drawn) [Example 174, 5-{(3,5-dimethoxy-4-methylbenzoyl)[3-(5-methylfuran-2-yl)propyl]amino}-2-hydroxy-2-methylpentanoic Acid]: the IC50 – broadly, the midpoint of a concentration-inhibition curve – in test [1] is 5.43 µM; in test [2] it was 0.991 µM; in test [3], 0.033 µM. Further, the Emax in test [1] was 65%; in test [2] it was 118%; in test [3] it was 73%.
On to `COc1cc(OC)cc(C(=O)N(CCCCC(=O)O)CCCc2ccccc2F)c1` [Example 134, 5-{(3,5-dimethoxybenzoyl)[3-(2-fluorophenyl)propyl]amino}pentanoic Acid], for which the IC50 in test [1] is over 10 µM; in test [2], 2.24 µM; in test [3] it was 0.074 µM. The figures for the Emax in test [1], in test [2] and in test [3] were 37%, 125% and 77%, respectively.
`COc1cc(OC)c(F)c(C(=O)N(CCCCC(=O)O)CCCc2ccccc2)c1` [Example 58, 5-[(2-fluoro-3,5-dimethoxybenzoyl)(3-phenylpropyl)amino]pentanoic Acid]: the values for the IC50 in test [1], in test [2] and in test [3] were 2.39 µM, 0.636 µM and 0.032 µM, respectively. In addition, the figures for the Emax in test [1], in test [2] and in test [3] were 78%, 112% and 93%, respectively.
On to `COc1cc(C(=O)N(CCCCC(=O)O)CCCc2ccccc2)c(F)c(OC)c1F` [Example 30, 5-[(2,4-difluoro-3,5-dimethoxybenzoyl)(3-phenylpropyl)amino]pentanoic Acid], for which the half-inhibitory concentration (IC50) was 0.743 µM in test [1], 0.618 µM in test [2] and 0.042 µM in test [3]. Also, the Emax in test [1] stood at 74%; in test [2], 118%; in test [3], 96%.
Regarding `COc1cc(C(=O)N(CCCCC(=O)O)CCCc2c(F)cccc2F)cc(OC)c1C` [Example 147, 5-{[3-(2,6-difluorophenyl)propyl](3,5-dimethoxy-4-methylbenzoyl)amino}pentanoic Acid], the IC50 in test [1] was 0.665 µM; in test [2] it was 0.178 µM; in test [3], 0.031 µM. Also, the Emax was 86% in test [1], 122% in test [2] and 93% in test [3].
On to `COc1cc(C(=O)N(CCCCC(=O)O)CCCc2ccc(C)o2)cc(OC)c1C1CC1` [Example 178, 5-{(4-cyclopropyl-3,5-dimethoxybenzoyl)[3-(5-methylfuran-2-yl)propyl]amino}pentanoic Acid], for which the values for the IC50 in test [1], in test [2] and in test [3] were 1.97 µM, 1.56 µM and 0.045 µM, respectively. Also, the Emax stood at 77% in test [1], 122% in test [2] and 84% in test [3].
For the compound `COc1cc(C(=O)N(CCCCC(=O)O)CCCc2ccccc2)cc(OC)n1` [Example 48, 5-[(2,6-dimethoxypyridine-4-carbonyl)(3-phenylpropyl)amino]pentanoic Acid], the IC50 in test [1] is over 4.77 µM; in test [2], 3.32 µM; in test [3] it was 0.052 µM. Besides, the Emax turned out to be 62% in test [1], 113% in test [2] and 81% in test [3].
As to `COc1cc(C(=O)N(CCCc2ccc(F)cc2F)CCOCC(=O)O)cc(OC)c1C` [Example 130, (2-{[3-(2,4-difluorophenyl)propyl](3,5-dimethoxy-4-methylbenzoyl)amino}ethoxy)acetic Acid], the values for the IC50 in test [1], in test [2] and in test [3] were 1.79 µM, 0.76 µM and 0.041 µM, respectively. The Emax in test [1] is 83%; in test [2], 119%; in test [3] it was 83%.
For `COc1cc(C(=O)N(CCCc2ccccc2)CCC[C@H](C)C(=O)O)cc(OC)c1C` (single isomer, unassigned) [Example 78], the figures for the 50% inhibitory concentration (IC50) in test [1], in test [2] and in test [3] were 0.078 µM, 0.011 µM and 0.033 µM, respectively. In addition, the Emax in test [1] was 95%; in test [2], 103%; in test [3], 100%.

The values are drawn from patent publication US20190119200A1, “TERTIARY AMIDES AND METHOD OF USE” (AbbVie Inc., priority 2016, published 2019).
